Legend:
human LSD1 = human LSD1 (Homo sapiens (Human), UniProt O60341); assay: Evaluation of enzyme activity: LSD1 fluorescence coupling enzyme assay (HRP/Amplex Red); assay type: biochemical; conditions: human LSD1, histone H3(1-21)K4me2 peptide 10 μM, 30 min pre-incubation
Summary of the method: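 Human LSD1 preincubated 30 min with compound, then reacted with H3(1-21)K4me2 peptide (10 μM). FAD-dependent H2O2 detected via HRP/Amplex Red fluorescence (Ex/Em 535/590). Ten-dose, 3-fold dilutions in duplicate from 10 μM gave IC50s, binned into activity classes.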

H1417 cells = assay: Cell proliferation inhibitory activity on H1417 cells (CellTiter-Glo, 10 days); assay type: cell-based, human; conditions: Homo sapiens
Summary of the method: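 H1417 cells in RPMI 1640 with fetal bovine serum were treated with 10-point 3-fold compound dilutions for 10 days. Viability was read by CellTiter-Glo luminescence. IC50 came from a four-parameter fit of percent inhibition, and maximal inhibition was also categorized.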

hERG potassium channel = hERG potassium channel (Homo sapiens (Human), UniProt Q12809); assay: Assay on inhibiting hERG potassium channel (automatic patch clamp, CHO-hERG cells); assay type: cell-based; conditions: Qpatch, max test concentration 40 μM
Description: Experimental purpose: Using automatic patch clamp method to detect the effect of the sample to be tested on hERG potassium channel.
4.1.1 CHO-hERG cells were cultured in 175 cm^2 flasks. When the cell density was increased to 60-80%, the culture solution was removed and the resultant was washed with 7 mL PBS (Phosphate Buffered Saline phosphate buffer), then 3 mL of digestive juice was added to digest.
4.1.2 After the digestion finished, 7 mL culture solution was added to neutralize. Then centrifuge, aspirate the supernatant, and then resuspend by adding 5 mL culture solution to ensure a cell density of 2-5×10^6/mL.
Single cell high impedance sealing and whole cell pattern formation were all done automatically by the Qpatch instrument. After the whole-cell recording mode was obtained, the cells were clamped at −80 mV. 50-Millisecond−50 mV preamplifier was applied prior to a 5 second+40 mV depolarization stimulus. Then the voltage was repolarized to −50 mV for 5 seconds and back to −80 mV. This voltage stimulation was applied every 15 seconds, and the extracellular fluid was recorded over 5 minutes after 2 minutes' record, and then the administration process was started. The compound concentration was started from the lowest test concentration, and each test concentration was given for 2.5 minutes. Test at least 3 cells (n≥3) for each concentration.
4.4.1 Dilute 20 mM mother liquor of the compound with extracellular fluid 5 μL of 20 mM mother liquor of the compound was added to 2495 μL extracellular fluid, and the mixture was 500-fold diluted to 40 μM. Then 0.2% DMSO in extracellular fluid was 3-fold diluted sequentially to obtain the final concentration to be tested.
4.4.2 The max test concentration was 40 μM, 6 concentrations were 40, 13.33, 4.44, 1.48, 0.49, and 0.16 μM respectively.
Experimental data was analyzed by XLFit software.

[1] = system: human small cell lung cancer NCI-H1417 cells subcutaneous xenograft tumor; assay: In vivo pharmacodynamic study, NCI-H1417 subcutaneous xenograft tumor CB-17 SCID mouse model; set-up: species or system CB-17 SCID mice; conditions: 1.5 mg/kg, PO, QD; day 27 after administration
Description: The purpose of this experiment was to investigate the efficacy of some of the compounds of the present invention in the in vivo xenograft tumor of human small cell lung cancer NCI-H1417 cells in a CB-17 SCID mouse model.
Week age and weight: 6-8 weeks old, weight 18-23 g
Human small cell lung cancer NCI-H1417 cells were cultured in vitro in a single layer cultured in RPMI-1640 medium (Sigma-aldrich, R0883), supplemented with 10% fetal bovine serum and cultured at 37° C. 5% CO2. When the cell saturation is 80%-90%. The cells are harvested, counted, and inoculated.
0.2 mL of 10×10^6 (NCI-H1417 cells were subcutaneously inoculated into the right back of each mouse (PBS:Matrigel=1:1). After 21 days of tumor inoculation, group administration was started when the average volume reached 107 mm^3.
The experimental solvent was the 10% hydroxypropyl-β-cyclodextrin solution. The preparation method was as follows: 100 g of hydroxypropyl-β-cyclodextrin was weighed into a 1000 mL jar, 800 mL of ultrapure water was added, stirred overnight until completely dissolved, and then made up to 1000 mL. The test substance was dissolved in a solvent, and was prepared into a uniform solution of a certain concentration and stored at 4° C.
The experimental indicator is to investigate whether tumor growth is inhibited, delayed or cured. Tumor diameters were measured twice a week using vernier calipers. The tumor volume is calculated as: V=0.5a×b^2, and a and b represent the long and short diameters of the tumor, respectively.
The antitumor effect of the compound was evaluated by TG (%). TGI (%), reflecting the tumor growth inhibition rate. TGI (%) calculation: TGI (%)=[1−(the average tumor volume at the end of a treatment group−the average tumor volume at the beginning of the treatment group)/(the average tumor volume at the end of the treatment of the solvent control group−The average tumor volume at the start of treatment in the solvent control group) was ×100%. Solvent control: Vehicle (10% hydroxypropyl-β-cyclodextrin solution).

hERG potassium channel, sequence (Q12809 whole entry): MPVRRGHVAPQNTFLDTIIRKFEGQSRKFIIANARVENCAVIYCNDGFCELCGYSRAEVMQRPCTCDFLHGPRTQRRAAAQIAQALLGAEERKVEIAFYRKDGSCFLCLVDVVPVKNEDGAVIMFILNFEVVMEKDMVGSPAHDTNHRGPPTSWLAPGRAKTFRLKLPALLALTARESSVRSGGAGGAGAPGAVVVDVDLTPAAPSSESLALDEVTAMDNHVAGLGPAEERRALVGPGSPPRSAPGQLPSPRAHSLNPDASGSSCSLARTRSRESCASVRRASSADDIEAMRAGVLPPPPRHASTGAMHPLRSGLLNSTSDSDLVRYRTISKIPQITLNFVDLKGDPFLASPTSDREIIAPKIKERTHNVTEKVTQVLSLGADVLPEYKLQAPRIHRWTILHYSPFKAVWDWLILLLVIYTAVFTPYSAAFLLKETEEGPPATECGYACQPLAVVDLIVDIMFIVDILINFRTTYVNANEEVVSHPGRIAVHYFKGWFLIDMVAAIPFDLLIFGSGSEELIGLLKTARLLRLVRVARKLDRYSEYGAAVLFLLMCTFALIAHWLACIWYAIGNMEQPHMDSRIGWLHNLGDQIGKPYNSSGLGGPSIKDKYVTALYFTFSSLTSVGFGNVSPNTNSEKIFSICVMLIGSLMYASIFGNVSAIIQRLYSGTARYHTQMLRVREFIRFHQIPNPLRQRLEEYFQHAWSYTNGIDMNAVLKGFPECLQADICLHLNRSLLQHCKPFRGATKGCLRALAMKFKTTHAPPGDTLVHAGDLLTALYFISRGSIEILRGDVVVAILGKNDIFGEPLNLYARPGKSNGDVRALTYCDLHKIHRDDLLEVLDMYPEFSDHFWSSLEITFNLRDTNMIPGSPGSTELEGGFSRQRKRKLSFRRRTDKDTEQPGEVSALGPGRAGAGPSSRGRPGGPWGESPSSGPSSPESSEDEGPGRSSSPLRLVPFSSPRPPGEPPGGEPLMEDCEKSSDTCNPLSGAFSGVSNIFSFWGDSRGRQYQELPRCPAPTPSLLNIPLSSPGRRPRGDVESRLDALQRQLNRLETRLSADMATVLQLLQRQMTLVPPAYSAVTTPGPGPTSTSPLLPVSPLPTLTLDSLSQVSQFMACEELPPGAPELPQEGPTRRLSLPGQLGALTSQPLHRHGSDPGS

- IC50 (human LSD1): 50 to 100 nM
- IC50 (H1417 cells; NCI-H1417, 240 h, H1417 cells, 10 days incubation): 500 to 1000 nM
SMILES: CN[C@H]1CC[C@H](c2nc(C3(CN[C@@H]4C[C@H]4c4ccccc4)CC3)no2)CC1 [Example 232]
- Emax (H1417 cells; NCI-H1417, H1417 cells, highest percentage inhibition of cell viability, read-out: Maximum inhibition percentage (%)): 70 to 90%
- IC50 (hERG potassium channel): > 40000 nM
- TGI (%) [1]: 51.1%
- Tumor volume (mm^3) (Day 27) [1]: 313 ± 28 mm^3

From patent US11433053B2, “LSD1 inhibitor and preparation method and application thereof” (CSPC ZHONGQI PHARMACEUTICAL TECHNOLOGY (SHIJIAZHUANG) CO., …, priority 2017, dated 2022)
